Key:
Format in all cases: in vivo, mouse
[1] = Example 12 HFD mice: oral glucose tolerance test; details: oral once daily 10 weeks, 50 mg/kg
Experimental: (§1) After adapting 8-week-old male C57b1/6 J mice to the basic diet (AIN-76A diet) for 2 weeks, and consuming Diet Induced Obesity Diet Formulas (D12451) 60 kcal % HFD diet for 2 weeks from 10 weeks of age, and then the test drug was administered when the average body weight reached 28 g or more. The animal breeding room environment of the mouse was maintained in a constant temperature (25±2° C.), constant humidity (50±5%) and a 12-hour photoperiod (light on 07:00˜19:00) in which the light and shade were controlled in an SPF environment. […] The test drug was dispersed in 0.5% Carboxymethyl cellulose (CMC) and administered in a volume of 0.2 ml, and the drug was administered orally by force into the stomach using a metal Zonde for oral administration.
(§2) […] Blood to be used for blood glucose measurement was collected from the tail vein of a mouse, and blood glucose was measured using a serum analyzer (Accutrend plus GCTL Cobas Roche, Germany).
(§3) Results obtained from various experiments are recorded as mean±standard error of mean (SEM), and significance verification is determined using the student's T-test analysis method. The data were analyzed using one-way ANOVA to determine a statistically significant variance between each group for each final point measured, and statistical significance between each group was determined using the nonparametric Mann-Whitney test and Dunnett's multiple comparison test (IBM SPSS statistics version 19.0 statistic software, Inc, IBM, USA).

[2] = Example 11 HFD mice: oral glucose tolerance test; details: oral once daily 10 weeks, 50 mg/kg
Experimental: (§4) After adapting 8-week-old male C57b1/6 J mice to the basic diet (AIN-76A diet) for 2 weeks, and consuming Diet Induced Obesity Diet Formulas (D12451) 60 kcal % HFD diet for 2 weeks from 10 weeks of age, and then the test drug was administered when the average body weight reached 28 g or more. The animal breeding room environment of the mouse was maintained in a constant temperature (25±2° C.), constant humidity (50±5%) and a 12-hour photoperiod (light on 07:00˜19:00) in which the light and shade were controlled in an SPF environment. […]
as §2, §3

[3] = Example 12 HFD mice: serum test; details: serum of HFD mice, oral once daily for 10 weeks; chiisanogenin 50 mg/kg; Garcinia cambogia extract 200 mg/kg; combination 50 + 150 mg/kg; Met 50 mg/kg
Experimental: The test drug was dispersed in 0.5% Carboxymethyl cellulose (CMC) and administered in a volume of 0.2 ml, and the drug was administered orally by force into the stomach using a metal Zonde for oral administration. Blood was collected by cardiac puncture to conduct a blood biochemical test after the end of the final experiment, and then plasma was separated by centrifugation at 3,000 rpm and 4° C. for 15 minutes within 30 minutes after blood collection, and then stored at −74° C. for blood chemistry and ELISA analysis. The contents of total cholesterol, high-density lipoprotein (HDL), low-density lipoprotein (LDL), triglyceride, FFA, glucose, and LDH, which are indicators of lipid content, were measured using an automated biochemical analyzer (Hitachi-720, Hitachi Medical, Japan). IGF-1 and Creatine were diluted in coating buffer, coated on microwells, and left overnight at 4° C. […] 100 μl of the TMB substrate was dispensed, left in the dark for 30 minutes, treated with 50 μl of the stop solution, and absorbance was measured at a wavelength of 450 nm using an ELISA reader. Results obtained from various experiments are recorded as mean±standard error of mean (SEM), and significance verification is determined using the student's T-test analysis method. […]

[4] = Example 11 HFD mice: weight change, dietary efficiency and organ weight; details: oral once daily 10 weeks, 50 mg/kg
Experimental: as §1
Body weight and food intake were measured and recorded at regular times every week. Total weight gain: weight at the end of the experiment−weight at the start of the experiment (1) Food intake=[…] (2) Food efficiency ratio (FER)=[total weight gain/total food intake]×100 (3)
The data were analyzed using one-way ANOVA to determine a statistically significant variance between each group for each final point measured, and statistical significance between each group was determined using the nonparametric Mann-Whitney test and Dunnett's multiple comparison test (IBM SPSS statistics version 19.0 statistic software, Inc, IBM, USA).

C/EBP-α mRNA = experiment: Example 11 HFD mice: adipose tissue C/EBP-α mRNA analysis; details: oral once daily 10 weeks, 50 mg/kg
Experimental: as §4
RNA was extracted from tissues using RNAsolB (Tel-Test) solution, and cDNA and real-time PCR analysis were performed using One-step SYBR Green PCR kit (AB science). […] Real time quantitative PCR was performed using the Applied Biosystems 7500 Real-Time PCR system (Applied Biosystems, USA).
as §3

## CN(C)C(=N)N=C(N)N [Met, Metformin]
[1]
  Inhibition Rate (OGTT): 23%
[1]; glucose 1 g/kg
  OGTT (30 min-0 min, mg/dL): 148.0 ± 18.50^ mg/dL
[2]
  Inhibition Rate (OGTT): 23%
[2]; glucose 1 g/kg
  OGTT (30 min-0 min, mg/dL): 148 ± 18.50^ mg/dL
[3]
  Creatin (mg/dL), mean ± standard error: 0.564 ± 0.011 mg/dL
[4]
  Final weight: 38.6 ± 0.93 g
  Food intakes: 2.24 g/day
  Inhibition Rate (FER): 41%
  Inhibition Rate (final weight): 43%
  Inhibition Rate (weight gain): 51%
  Kidney weight: 0.31 ± 0.01 g
  Spleen weight: 0.10 ± 0.00 g
  Weight gain: 15.3 ± 0.82 g
C/EBP-α mRNA
  Inhibition Rate (C/EBP-α mRNA): 75%
C/EBP-α mRNA; GAPDH control
  C/EBP-α mRNA expression in adipose tissue: 1.153 ± 0.320
